Literature values as cited in patent US20130267484A1, “TREATMENT OF RHEUMATOID ARTHRITIS WITH MASITINIB” (AB SCIENCE, priority 2010, published 2013).

What was measured:
ABL = ABL (Homo sapiens, UniProt P00519); conditions: at therapeutic doses; cited from earlier work
c-kit = conditions: cited from earlier work

ABL, sequence (P00519 whole entry): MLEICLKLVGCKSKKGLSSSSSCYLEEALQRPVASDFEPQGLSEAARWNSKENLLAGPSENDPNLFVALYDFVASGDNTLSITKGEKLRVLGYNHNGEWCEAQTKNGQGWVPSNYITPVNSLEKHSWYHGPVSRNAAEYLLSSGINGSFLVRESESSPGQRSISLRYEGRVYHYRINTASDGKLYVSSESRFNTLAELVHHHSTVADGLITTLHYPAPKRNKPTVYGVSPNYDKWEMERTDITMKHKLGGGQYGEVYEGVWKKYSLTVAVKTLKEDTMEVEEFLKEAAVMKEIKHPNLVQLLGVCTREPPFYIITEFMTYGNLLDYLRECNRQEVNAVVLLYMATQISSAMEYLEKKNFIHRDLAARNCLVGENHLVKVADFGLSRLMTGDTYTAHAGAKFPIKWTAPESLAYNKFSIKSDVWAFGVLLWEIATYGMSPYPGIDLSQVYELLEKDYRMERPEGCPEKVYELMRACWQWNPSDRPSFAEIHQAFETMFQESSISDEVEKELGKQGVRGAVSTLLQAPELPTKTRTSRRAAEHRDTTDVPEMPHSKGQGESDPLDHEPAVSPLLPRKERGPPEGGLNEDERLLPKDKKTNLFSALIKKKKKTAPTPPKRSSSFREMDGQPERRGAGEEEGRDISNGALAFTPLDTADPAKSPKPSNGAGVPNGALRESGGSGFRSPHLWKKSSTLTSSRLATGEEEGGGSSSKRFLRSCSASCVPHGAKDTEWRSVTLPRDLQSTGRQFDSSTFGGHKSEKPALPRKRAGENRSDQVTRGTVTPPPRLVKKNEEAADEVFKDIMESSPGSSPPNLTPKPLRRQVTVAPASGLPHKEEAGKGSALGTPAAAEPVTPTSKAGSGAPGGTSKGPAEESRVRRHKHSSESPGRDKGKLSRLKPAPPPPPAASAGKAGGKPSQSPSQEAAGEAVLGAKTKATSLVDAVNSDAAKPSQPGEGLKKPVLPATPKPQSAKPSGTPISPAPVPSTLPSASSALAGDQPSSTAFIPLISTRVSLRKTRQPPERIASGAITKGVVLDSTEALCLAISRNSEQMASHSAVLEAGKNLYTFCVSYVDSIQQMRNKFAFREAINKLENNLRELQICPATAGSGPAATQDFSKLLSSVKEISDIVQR

Cc1ccc(NC(=O)c2ccc(CN3CCN(C)CC3)cc2)cc1Nc1nc(-c2cccnc2)cs1 [masitinib, 4-(4-methylpiperazin-1-ylmethyl)-N-[4-methyl-3-(4-pyridin-3ylthiazol-2-ylamino)phenyl]benzamide]
Inhibition of ABL (ABL): without inhibiting | Effect on wild-type and juxtamembrane-mutated c-Kit receptors (c-kit): strong inhibitory effect | Inhibition of c-kit (c-kit): selectively inhibiting
